The subject of data set [1] is TTR. Kind of data set: TTR editing in HepG2 cells transfected with Spy Cas9 mRNA and dgRNAs (Table 6). The data set is classed as cell-based, human. The conditions noted are these: HepG2 cells co-transfected with Spy Cas9 mRNA (SEQ ID NO:2) and dgRNAs. The method, then: HepG2 cell line. The human hepatocellular carcinoma cell line HepG2 (American Type Culture Collection, Cat. HB-8065) was cultured in DMEM media supplemented with 10% fetal bovine serum. Cells were counted and plated on Bio-coat collagen I coated 96-well plates (ThermoFisher, Cat. 877272) at a density of 10,000 cells/well in a 96-well plate 24 hours prior to transfection. Cells were transfected with Lipofectamine 2000 (ThermoFisher, Cat. 11668019) per the manufacturer's protocol. Cells were sequentially transfected with lipoplex containing Spy Cas9 mRNA (100 ng), Lipofectamine 2000 (0.2 μL/well) and OptiMem followed by a separate lipoplex containing individual crRNA (25 nM), tracer RNA (25 nM), Lipofectamine 2000 (0.2 μL/well) and OptiMem.
(§1) Transfected cells were harvested post-transfection at 24, 48, or 72 hours. The genomic DNA was extracted from each well of a 96-well plate using 50 μL/well BuccalAmp DNA Extraction solution (Epicentre, Cat. QE09050) per manufacturer's protocol. All DNA samples were subjected to PCR and subsequent NGS analyses, as described herein.
(§2) To quantitatively determine the efficiency of editing at the target location in the genome, sequencing was utilized to identify the presence of insertions and deletions introduced by gene editing.
(§3) Primers were designed around the target site within the gene of interest (e.g. TTR), and the genomic area of interest was amplified.
(§4) Additional PCR was performed per the manufacturer's protocols (Illumina) to add chemistry for sequencing. The amplicons were sequenced on an Illumina MiSeq instrument. The reads were aligned to a reference genome (e.g., the human reference genome (hg38), the cynomologus reference genome (mf5), the rat reference genome (rn6), or the mouse reference genome (mm10)) after eliminating those having low quality scores. The resulting files containing the reads were mapped to the reference genome (BAM files), where reads that overlapped the target region of interest were selected and the number of wild type reads versus the number of reads which contain an insertion, substitution, or deletion was calculated.
(§5) The editing percentage (e.g., the “editing efficiency” or “percent editing” or “indel frequency”) is defined as the total number of sequence reads with insertions/deletions (“indels”) or substitutions over the total number of sequence reads, including wild type.
(§6) Guides in dgRNA format targeting human TTR and the cynomologus matched sequences were delivered to HEK293 Cas9, HUH7 and HepG2 cell lines, as well as primary human hepatocytes and primary cynomolgus monkey hepatocytes as described in Example 1. Percent editing was determined for crRNAs comprising each guide sequence across each cell type and the guide sequences were then rank ordered based on highest % edit. The screening data for the guide sequences in Table 1 in all five cell lines are listed below (Table 4 through 11).

Data set [2] relates to TTR. Kind of data set: TTR editing in primary human hepatocytes electroporated with Spy Cas9 protein loaded with dgRNAs (Table 7). The data set is classed as cell-based. The conditions noted are these: dgRNA electroporated with Spy Cas9 protein (RNP). The procedure:
(§7) Primary liver hepatocytes. Primary human liver hepatocytes (PHH) and primary cynomolgus liver hepatocytes (PCH) (Gibco) were cultured per the manufacturer's protocol (Invitrogen, protocol 11.28.2012). In brief, the cells were thawed and resuspended in hepatocyte thawing medium with supplements (Gibco, Cat. CM7000) followed by centrifugation at 100 g for 10 minutes for human and 80 g for 4 minutes for cyno. The supernatant was discarded and the pelleted cells resuspended in hepatocyte plating medium plus supplement pack (Invitrogen, Cat. A1217601 and CM3000). Cells were counted and plated on Bio-coat collagen I coated 96-well plates (ThermoFisher, Cat. 877272) at a density of 33,000 cells/well for human or 60,000 cells/well for cyno (or 65,000 cells/well when assaying effects on TTR protein, described further below). Plated cells were allowed to settle and adhere for 6 or 24 hours in a tissue culture incubator at 37° C. and 5% CO2 atmosphere. After incubation cells were checked for monolayer formation and media was replaced with hepatocyte culture medium with serum-free supplement pack (Invitrogen, Cat. A1217601 and CM4000).
(§8) […] formation was performed prior to electroporation or transfection of Spy Cas9 protein loaded with guide RNAs (RNPs) onto cells. For dual guide (dgRNAs), individual crRNA and trRNA was pre-annealed by mixing equivalent amounts of reagent and incubating at 95° C. for 2 min and cooling to room temperature. Single guide (sgRNAs) were boiled at 95° C. for 2 min and cooling to room temperature. The boiled dgRNA or sgRNA was incubated with Spy Cas9 protein in Optimem for 10 minutes at room temperature to form a ribonucleoprotein (RNP) complex.
For RNP electroporation into primary human and cyno hepatocytes, the cells are thawed and resuspended in Lonza electroporation Primary Cell P3 buffer at a concentration of 2500 cells per μL for human hepatocytes and 3500 cells per μL for cyno hepatocytes. A volume of 20 μL of resuspended cells and 5 μL of RNP are mixed together per guide. 20 μL of the mixture is placed into a Lonza electroporation plate. The cells were electroporated using the Lonza nucleofector with the preset protocol EX-147. Post electroporation, the cells are transferred into a Biocoat plate containing pre-warmed maintenance media and placed in a tissue culture incubator at 37° C. and 5% CO2.
as §1, §2, §3, §4
The editing percentage (e.g., the “editing efficiency” or “percent editing” or “indel frequency”) is defined as the total number of sequence reads with insertions/deletions (“indels”) or substitutions over the total number of sequence reads, including wild type. […]

For data set [3], the system named is TTR. Kind of data set: TTR editing in primary human hepatocytes transfected with Spy Cas9 protein (RNP) loaded with dgRNAs (Table 8). The data set is classed as cell-based. The conditions noted are these: dgRNA transfected with Spy Cas9 protein (RNP). The procedure:
as §7, §8
For RNP lipoplex transfections, cells were transfected with Lipofectamine RNAiMAX (ThermoFisher, Cat. 13778150) per the manufacturer's protocol. Cells were transfected with an RNP containing Spy Cas9 (10 nM), individual guide (10 nM), tracer RNA (10 nM), Lipofectamine RNAiMAX (1.0 μL/well) and OptiMem. RNP formation was performed as described above.
as §1, §2, §3, §4, §5
Guides in dgRNA format targeting human TTR and the cynomologus matched sequences were delivered to HEK293 Cas9, HUH7 and HepG2 cell lines, as well as primary human hepatocytes and primary cynomolgus monkey hepatocytes as described in Example 1. […]

The subject of data set [4] is TTR. Kind of data set: TTR editing in primary human hepatocytes transfected with Spy Cas9 mRNA and dgRNAs (Table 9). The data set is classed as cell-based. The conditions noted are these: dgRNA co-transfected with Spy Cas9 mRNA (SEQ ID NO:2). The procedure:
as §7
Lipofectamine RNAiMax (ThermoFisher, Cat. 13778150) based transfections were conducted as per the manufacturer's protocol. Cells were sequentially transfected with a lipoplex containing Spy Cas9 mRNA (100 ng), Lipofectamine RNAiMax (0.4 μL/well) and OptiMem followed by a separate lipoplex containing crRNA (25 nM) and tracer RNA (25 nM) or sgRNA (25 nM), Lipofectamine RNAiMax (0.4 μL/well) and OptiMem.
as §1, §2, §3, §4, §5, §6

Data set [5] relates to TTR. Kind of data set: TTR editing in HEK293_Cas9 cells transfected with dgRNAs (Table 4). The format is cell-based, human. The conditions noted are these: HEK293_Cas9 cells (constitutively express Spy Cas9) transfected with dgRNAs. The method, then:
HEK293 Cas9 cell line. The human embryonic kidney adenocarcinoma cell line HEK293 constitutively expressing Spy Cas9 (“HEK293_Cas9”) was cultured in DMEM media supplemented with 10% fetal bovine serum and 500 μg/ml G418. Cells were plated at a density of 10,000 cells/well in a 96-well plate 24 hours prior to transfection. Cells were transfected with Lipofectamine RNAiMAX (ThermoFisher, Cat. 13778150) per the manufacturer's protocol. Cells were transfected with a lipoplex containing individual crRNA (25 nM), trRNA (25 nM), Lipofectamine RNAiMAX (0.3 μL/well) and OptiMem.
as §1, §2, §3, §4, §5, §6

Data set [6] has as its system TTR. Kind of data set: TTR editing in HUH7 cells transfected with Spy Cas9 mRNA and dgRNAs (Table 5). The data set is classed as cell-based, human. The conditions noted are these: HUH7 cells co-transfected with Spy Cas9 mRNA (SEQ ID NO:2) and dgRNAs. The method, then:
HUH7 cell line. The human hepatocellular carcinoma cell line HUH7 (Japanese Collection of Research Bioresources Cell Bank, Cat. JCRB0403) was cultured in DMEM media supplemented with 10% fetal bovine serum. Cells were plated on at a density of 15,000 cells/well in a 96-well plate 20 hours prior to transfection. Cells were transfected with Lipofectamine MessengerMAX (ThermoFisher, Cat. LMRNA003) per the manufacturer's protocol. Cells were sequentially transfected with a lipoplex containing Spy Cas9 mRNA (100 ng), MessengerMAX (0.3 μL/well) and OptiMem followed by a separate lipoplex containing individual crRNA (25 nM), tracer RNA (25 nM), MessengerMAX (0.3 μL/well) and OptiMem.
as §1, §2, §3, §4, §5, §6

Regarding “AAAUCUUACUGGAAGGCACU (tested as dual guide RNA, chemistry not given here) [CR005306]”, the “Avg % Deletion” value with TTR [1] was found to be 2.87%; in the data set with TTR [2], 1.37%; in the data set with TTR [3], 2.57%; with TTR [4], 2.87%. The “Avg % Edit” value in the data set with TTR [1] came to 24.07%; in the data set with TTR [2], 9.43%; in the data set on TTR [3] it was 18.81%; with TTR [4], 9.97%. For the same sequence, the “Avg % Insert” value worked out at 21.20% in the data set on TTR [1], 8.07% with TTR [2], 16.24% with TTR [3] and 7.13% in the data set on TTR [4].
On to “AAUGGUGUAGCGGCGGGGGC (tested as dual guide RNA, chemistry not given here) [CR003375]”, for which the “Avg % Deletion” value in the data set on TTR [5] worked out at 10.85%; in the data set with TTR [6], 2.25%; in the data set with TTR [1], 0.10%; in the data set with TTR [2] it was 0.07%; with TTR [3], 0.11%; in the data set on TTR [4], 0.03%. The “Avg % Edit” value with TTR [5] came out at 11.63%; in the data set on TTR [6], 2.38%; in the data set on TTR [1], 2.06%; with TTR [2], 1.33%; in the data set on TTR [3] it was 5.04%; with TTR [4], 1.27%. For the same sequence, the “Avg % Insert” value in the data set on TTR [5] is 0.78%; with TTR [6], 0.26%; in the data set on TTR [1] it was 1.96%; in the data set on TTR [2], 1.27%; with TTR [3], 4.93%; in the data set with TTR [4], 1.23%.
In the case of “ACCUGGGAGCCAUUUGCCUC (tested as dual guide RNA, chemistry not given here) [CR003354]”, the “Avg % Deletion” value was 15.90% in the data set with TTR [5]; 11.46% in the data set with TTR [6]; 0.53% in the data set on TTR [1]; 0.03% in the data set on TTR [2]; 0.23% in the data set with TTR [3]; 0.13% with TTR [4]. The “Avg % Edit” value amounted to 18.46% in the data set with TTR [5]; 12.27% with TTR [6]; 5.36% in the data set on TTR [1]; 2.50% in the data set on TTR [2]; 10.31% with TTR [3]; 2.97% in the data set with TTR [4]. Further, the “Avg % Insert” value in the data set with TTR [5] is given as 2.56%; in the data set on TTR [6] it was 1.25%; in the data set with TTR [1], 4.84%; in the data set with TTR [2], 2.43%; with TTR [3], 10.07%; with TTR [4], 2.87%.
Take “CACAUGCACGGCCACAUUGA (tested as dual guide RNA, chemistry not given here) [CR003350]”: the “Avg % Deletion” value with TTR [5] worked out at 16.77%; in the data set with TTR [6], 41.64%; in the data set with TTR [1], 4.44%; with TTR [2], 5.73%; with TTR [3] it was 5.07%; in the data set with TTR [4] it was 10.33%. Further, the “Avg % Edit” value in the data set with TTR [5] was 22.31%; in the data set on TTR [6], 52.91%; in the data set with TTR [1], 29.60%; with TTR [2], 28.13%; in the data set on TTR [3], 24.84%; in the data set on TTR [4] it was 26.63%. The “Avg % Insert” value stood at 5.54% with TTR [5]; 13.43% in the data set on TTR [6]; 25.16% in the data set on TTR [1]; 22.40% with TTR [2]; 19.77% with TTR [3]; 16.33% in the data set with TTR [4].
Take “CGGCAAUGGUGUAGCGGCGG (tested as dual guide RNA, chemistry not given here) [CR003376]”: the “Avg % Deletion” value was 26.81% in the data set with TTR [5]; 18.55% in the data set with TTR [6]; 0.24% in the data set on TTR [1]; 0.03% with TTR [2]; 0.14% with TTR [3]; 0.13% in the data set on TTR [4]. Moreover, the “Avg % Edit” value in the data set with TTR [5] was determined as 28.16%; with TTR [6] it was 19.42%; in the data set with TTR [1], 14.41%; with TTR [2], 1.90%; with TTR [3], 5.00%; in the data set on TTR [4], 2.83%. Also, the “Avg % Insert” value in the data set with TTR [5] stood at 1.35%; with TTR [6] it was 1.37%; in the data set with TTR [1], 14.16%; in the data set on TTR [2], 1.87%; with TTR [3], 4.86%; in the data set with TTR [4], 2.73%.

The values are drawn from patent publication US11795460B2, “Compositions and methods for TTR gene editing and treating ATTR amyloidosis” (Intellia Therapeutics, Inc., priority 2017, dated 2023).
